These results are taken from patent US20240255419A1, “MOLECULAR PROBES FOR MAPPING BIOLOGICAL ACTIVITY” (Trustees of Boston University, priority 2023, published 2024).

The subject of assay [1] is alkaline phosphatase (ALP). To be noted: standard substrate, identical conditions.
A further assay has as its system ATP synthetase. Briefly: cellular uptake mechanism, NBD fluorescence of NBD-Phos-CN(S). Type of assay: cell-based. As to conditions: 5 μM inhibitor, cells with NBD-Phos-CN(S). From the text: Considering the high sensitivity and resistance to photobleaching, we conducted real-time monitoring of dephosphorylation reaction in cells by MIP imaging as Phos-CN(S) is introduced to the cells. […] The Nanoparticles formed by the amphiphilic nitrile chameleons may escape from endosomes through endosomal membrane disruption or perforation. The variation in phosphatase activity patterns at different time points is attributed to the dynamic movements of cellular structures within live cells. As previously discussed, the nanofilaments intertwine with cellular structures, causing the nanofilaments to move along with these structures. Furthermore, we utilized NBD-Phos-CN(S) to study the cellular uptake mechanism of nitrile chameleons because NBD fluorescence cannot distinguish between substrate and product.

The next assay relates to SJSA-1 cells. Briefly: induction of apoptosis for activating caspase-3/7. Type of assay: cell-based. The source says: Other than phosphatase, we profiled caspase-3/7 activity in live cancer cells.
Another assay addresses T1, caspase-3 (active) (Homo sapiens, UniProt P42574).
T1 sequence (P42574 29-175 limits assumed): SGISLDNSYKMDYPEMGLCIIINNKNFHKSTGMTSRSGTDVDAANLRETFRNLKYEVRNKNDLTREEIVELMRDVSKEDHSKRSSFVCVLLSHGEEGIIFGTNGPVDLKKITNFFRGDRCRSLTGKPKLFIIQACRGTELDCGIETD
T1 sequence (P42574 176-277 limits assumed): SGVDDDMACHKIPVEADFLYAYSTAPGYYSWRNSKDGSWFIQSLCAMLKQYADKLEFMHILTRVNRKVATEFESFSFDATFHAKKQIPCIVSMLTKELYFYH
Briefly: enzymatic conversion efficiency by caspase-3 (active), time-course of product formation. Type of assay: biochemical. As to conditions: standard substrate, identical conditions.

Turning to `O=[N+]([O-])c1ccc(OP(=O)(O)O)cc1` [P-nitrophenyl phosphate], the “initial speed (v0)” value in assay [1] was 0.53 nmol/min. Take `CC[C@H]1/C=C/C=C/C[C@@H](C)[C@H](O)[C@@](C)(O)C(=O)[C@@H](C)[C@H](O)[C@@H](C)C(=O)[C@@H](C)[C@H](O)[C@@H](C)/C=C/C(=O)O[C@@H]2[C@H](C)[C@H](CC1)O[C@]1(CC[C@H](C)[C@H](C[C@@H](C)O)O1)[C@H]2C` [oligomycin]: the “NBD fluorescence inside the cells” value with ATP synthetase is given as “significantly reduced”. In the case of `COc1cccc2c1C(=O)c1c(O)c3c(c(O)c1C2=O)C[C@@](O)(C(=O)CO)C[C@@H]3O[C@H]1C[C@H](N)[C@H](O)[C@H](C)O1` [Doxorubicin], in the assay on SJSA-1 cells, the apoptosis induction result is “efficiently induces apoptosis”. In the case of Ac-DEVD-pNA, the “initial speed (v0)” value at caspase-3 (active) amounted to 0.33 nmol/min.
